Earlier results, collected in patent US7094805B2, “Total synthesis of merrilactone A” (The Trustees of Columbia University in the City of New York, priority 2001, dated 2006).

Test system: fetal rat cortical neurons

## C[C@@]12COC(=O)[C@]1(C)[C@@H]1O[C@]3(C)[C@@H](O)C[C@]24OC(=O)C[C@]143 (racemic) [compound 1, merrilactone A]
General statement
  promotion of neurite outgrowth: promote neurite outgrowth
Preliminary studies, natural merrilactone A, "at concentrations as low as"
  concentrations at which neurite outgrowth is greatly promoted: 0.1 to 10 µmol
